Experimental data published in patent US20260297060A1, “COMPOUNDS FOR THE DEGRADATION OF MUTANT BRAF” (C4 THERAPEUTICS, INC., priority 2023, published 2026).

Tested on: A375 human melanoma xenografts
Test: Example 7 efficacy study in A375 human melanoma xenografts (tumor volume, T/C, TGI)
Type: in vivo, BALB/c nude mice
Settings: 100 mg/kg, p.o., QD × 14 days
Method: For efficacy study, agents were tested in the A375 human melanoma xenografts. Compound 118, Compound 156, and Compound 180 were administered to BALB/c nude mice bearing A375 xenografts from day 0 and dosed p.o. twice per day (BID). Compound 141 was administered from day 0 and dosed p.o. twice per day (BID) or dosed p.o. daily (QD) from day 1. Compound 141, Compound 118, Compound 156, and Compound 180 were dosed at 10 mg/kg for 14 days. The known BRAF inhibitor Dabrafenib was used as a positive control. Dabrafenib was administered from day 1 and dosed p.o. daily (QD) for 14 days and dosed at 100 mg/kg.
The A375 tumor cells were maintained in vitro in DMEM medium supplemented with […] and 1% Penicillin-Streptomycin at 37° C. in an atmosphere of 5% CO2 in air. The tumor cells were routinely subcultured twice weekly. The cells growing in an exponential growth phase were harvested and counted for tumor inoculation.
Each mouse was inoculated subcutaneously at the right flank with A375 tumor cells (5×10^6) in 0.2 mL of PBS with Matrigel (PBS: Matrigel=1:1) supplemented for tumor development. Animals were grouped when the average tumor volume reached 246 mm^3 for efficacy study and 390 mm^3 for PKPD study on day 17 after tumor inoculation. The test articles administration and the animal numbers in each group are shown in the above experimental tables.
Prior to the onset of drug treatment, mice were measured for tumor size in two dimensions using a caliper, and the tumor volume (mm^3) was calculated using formula V=0.5 a×b^2 where a and b are the long and short diameters of the tumor in mm, respectively. Mice were randomized into different treatment groups based on the tumor volume.
The major endpoint was to see if the tumor growth could be delayed or mice could be cured. The tumor size was then used for calculations of T/C value. The T/C value (in percent) is an indication of antitumor effectiveness; T and C are the mean volumes of the treated and control groups, respectively on specified day.
TGI was calculated for each group using the formula: TGI (%)=[1−(Ti−T0)/(Ci−C0)]×100; Ti is the average tumor volume of a treatment group on a given day, T0 is the average tumor volume of the treatment group on the day of treatment start, Ci is the average tumor volume of the vehicle control group on the same day with Ti, and C0 is the average tumor volume of the vehicle group on the day of treatment start.

In the case of CC(C)(C)c1nc(-c2cccc(NS(=O)(=O)c3c(F)cccc3F)c2F)c(-c2ccnc(N)n2)s1 [Dabrafenib, dabrafenib, reference compound], the T/C (PG-D14) is reported as 55.8%, the TGI (PG-D14) is reported as 54.3% and the “Tumor Size on PG-D14 (mean ± SEM)” value (PG-D14) is reported as 741 ± 40 mm^3. The “Tumor Volume (mean ± SEM)” value (day 0) was 246 ± 10 mm^3, the “Tumor Volume (mean ± SEM)” value (day 3) was 394 ± 20 mm^3 and the “Tumor Volume (mean ± SEM)” value (day 7) was 515 ± 30 mm^3. The “Tumor Volume (mean ± SEM)” value (day 10) was 608 ± 21 mm^3 and the “Tumor Volume (mean ± SEM)” value (day 14) was 741 ± 40 mm^3.
